Experimental data taken from publication PMC5218480 (PLoS ONE, 2017).

Test system: MV-4-11 cells
Assay: Gene expression microarray analysis (Affymetrix PrimeView) and GSEA
Type: cell-based, human
Design: RFU PODN (11730768_x_at) / Fold change /veh PODN (11730768_x_at) / RFU LINC00158 (11744669_a_at) / Fold change /veh LINC00158 (11744669_a_at) / RFU DUSP10 (11751237_a_at) / Fold change /veh DUSP10 (11751237_a_at) / RFU ID3 (11757404_x_at) / Fold change /veh ID3 (11757404_x_at) / RFU PLEKHG5 (11737974_s_at) / Fold change /veh PLEKHG5 (11737974_s_at) / RFU LRRC4B (11730491_at) / Fold change /veh LRRC4B (11730491_at) / RFU GIMAP4 (11747438_a_at) / Fold change /veh GIMAP4 (11747438_a_at) / RFU KRT8 (11758183_x_at) / Fold change /veh KRT8 (11758183_x_at) / RFU CNN1 (11734310_a_at) / Fold change /veh CNN1 (11734310_a_at) / RFU VPS37D (11726825_at) / Fold change /veh VPS37D (11726825_at) / RFU C10orf10 (11716522_x_at) / Fold change /veh C10orf10 (11716522_x_at) / RFU KIR2DL2 /// KIR2DL4 /// KIR2DL5A /// KIR2DL5B /// KIR2DS1 /// KIR2DS2 /// KIR2DS3 /// KIR2DS4 /// KIR3DL3 /// KIR3DL3 /// KIR3DS1 (11738374_at) / Fold change /veh KIR2DL2 /// KIR2DL4 /// KIR2DL5A /// KIR2DL5B /// KIR2DS1 /// KIR2DS2 /// KIR2DS3 /// KIR2DS4 /// KIR3DL3 /// KIR3DL3 /// KIR3DS1 (11738374_at) / RFU C1QL1 (11718748_at) / Fold change /veh C1QL1 (11718748_at) / RFU TMPRSS4 (11747572_a_at) / Fold change /veh TMPRSS4 (11747572_a_at) / RFU HAMP (11756126_x_at) / Fold change /veh HAMP (11756126_x_at) / RFU RNFT2 (11725882_a_at) / Fold change /veh RNFT2 (11725882_a_at) / RFU NR4A2 (11747474_a_at) / Fold change /veh NR4A2 (11747474_a_at) / RFU ABCC12 (11746883_a_at) / Fold change /veh ABCC12 (11746883_a_at) / RFU TMEM136 (11760407_x_at) / Fold change /veh TMEM136 (11760407_x_at) / RFU CLDN22 /// WWC2 (11732394_at) / Fold change /veh CLDN22 /// WWC2 (11732394_at) / RFU HLA-DPB1 (11760878_x_at) / Fold change /veh HLA-DPB1 (11760878_x_at) / RFU SPINT1 (11716480_a_at) / Fold change /veh SPINT1 (11716480_a_at) / RFU GAP43 (11754022_s_at) / Fold change /veh GAP43 (11754022_s_at) / RFU A4GNT (11735810_at) / Fold change /veh A4GNT (11735810_at) / RFU PRB3 (11715151_x_at) / Fold change /veh PRB3 (11715151_x_at) / RFU TUBB4B (11761932_at) / Fold change /veh TUBB4B (11761932_at) / RFU CAPN14 (11732068_a_at) / Fold change /veh CAPN14 (11732068_a_at) / RFU TMCC2 (11721928_a_at) / Fold change /veh TMCC2 (11721928_a_at) / RFU IRGQ (11745062_a_at) / Fold change /veh IRGQ (11745062_a_at) / RFU FAM174B (11720279_a_at) / Fold change /veh FAM174B (11720279_a_at) / RFU TMPRSS4 (11748680_a_at) / Fold change /veh TMPRSS4 (11748680_a_at) / RFU FAM212B (11763350_a_at) / Fold change /veh FAM212B (11763350_a_at) / RFU PLEKHG5 (11743358_a_at) / Fold change /veh PLEKHG5 (11743358_a_at) / RFU ZSCAN30 (11745921_a_at) / Fold change /veh ZSCAN30 (11745921_a_at) / RFU CMKLR1 (11741424_a_at) / Fold change /veh CMKLR1 (11741424_a_at) / RFU LOC101060620 /// MAPK8IP1 (11723275_at) / Fold change /veh LOC101060620 /// MAPK8IP1 (11723275_at) / RFU SPTSSB (11747773_x_at) / Fold change /veh SPTSSB (11747773_x_at) / RFU PRSS12 (11739890_at) / Fold change /veh PRSS12 (11739890_at) / RFU BIN1 (11741810_x_at) / Fold change /veh BIN1 (11741810_x_at) / RFU WNT11 (11732464_a_at) / Fold change /veh WNT11 (11732464_a_at) / RFU C10orf10 (11716521_a_at) / Fold change /veh C10orf10 (11716521_a_at) / RFU C5orf56 (11738089_at) / Fold change /veh C5orf56 (11738089_at) / RFU CYB561 (11721691_x_at) / Fold change /veh CYB561 (11721691_x_at) / RFU ANKRD19P (11752326_a_at) / Fold change /veh ANKRD19P (11752326_a_at) / RFU OR2T12 /// OR2T33 /// OR2T8 (11738714_s_at) / Fold change /veh OR2T12 /// OR2T33 /// OR2T8 (11738714_s_at) / RFU VCAN (11748164_a_at) / Fold change /veh VCAN (11748164_a_at) / RFU JSRP1 (11732532_at) / Fold change /veh JSRP1 (11732532_at) / RFU KRTAP10-11 (11738290_x_at) / Fold change /veh KRTAP10-11 (11738290_x_at) / RFU MYO3A (11730013_a_at) / Fold change /veh MYO3A (11730013_a_at) / RFU EBF3 (11725865_a_at) / Fold change /veh EBF3 (11725865_a_at) / RFU CAMK2N1 (11719241_x_at) / Fold change /veh CAMK2N1 (11719241_x_at) / RFU C5orf56 (11738088_a_at) / Fold change /veh C5orf56 (11738088_a_at) / RFU OLFML3 (11715873_a_at) / Fold change /veh OLFML3 (11715873_a_at) / RFU LOC100653217 /// NTM (11731650_a_at) / Fold change /veh LOC100653217 /// NTM (11731650_a_at) / RFU MAPK11 (11762145_a_at) / Fold change /veh MAPK11 (11762145_a_at) / RFU FIZ1 (11724087_x_at) / Fold change /veh FIZ1 (11724087_x_at) / RFU OASL (11726364_x_at) / Fold change /veh OASL (11726364_x_at) / RFU SOX15 (11748057_x_at) / Fold change /veh SOX15 (11748057_x_at) / RFU CD79A (11719716_a_at) / Fold change /veh CD79A (11719716_a_at) / RFU HIST1H1D (11736915_at) / Fold change /veh HIST1H1D (11736915_at) / RFU CASKIN2 (11723855_a_at) / Fold change /veh CASKIN2 (11723855_a_at) / RFU LOC730098 (11760151_x_at) / Fold change /veh LOC730098 (11760151_x_at) / RFU OR4N2 (11742367_at) / Fold change /veh OR4N2 (11742367_at) / RFU PRRT2 (11749266_a_at) / Fold change /veh PRRT2 (11749266_a_at) / RFU SNX32 (11753110_a_at) / Fold change /veh SNX32 (11753110_a_at) / RFU CDHR5 (11726645_a_at) / Fold change /veh CDHR5 (11726645_a_at) / RFU RCAN1 (11760418_a_at) / Fold change /veh RCAN1 (11760418_a_at) / RFU FAM167A (11723789_a_at) / Fold change /veh FAM167A (11723789_a_at) / RFU FAM26E (11764081_at) / Fold change /veh FAM26E (11764081_at) / RFU ISYNA1 (11749810_s_at) / Fold change /veh ISYNA1 (11749810_s_at) / RFU ACY1 (11761880_at) / Fold change /veh ACY1 (11761880_at) / RFU 11764098_at / Fold change /veh 11764098_at / RFU SAMD14 (11745864_x_at) / Fold change /veh SAMD14 (11745864_x_at) / RFU NPB (11741838_a_at) / Fold change /veh NPB (11741838_a_at) / RFU TMPRSS6 (11731388_a_at) / Fold change /veh TMPRSS6 (11731388_a_at) / RFU KRTAP10-2 (11738614_at) / Fold change /veh KRTAP10-2 (11738614_at) / RFU ARHGAP8 /// PRR5-ARHGAP8 (11727945_x_at) / Fold change /veh ARHGAP8 /// PRR5-ARHGAP8 (11727945_x_at) / RFU KRTAP5-7 /// NADSYN1 (11734609_at) / Fold change /veh KRTAP5-7 /// NADSYN1 (11734609_at) / RFU RASL12 (11751679_a_at) / Fold change /veh RASL12 (11751679_a_at) / RFU CDKN2B (11736163_a_at) / Fold change /veh CDKN2B (11736163_a_at) / RFU PRF1 (11729649_at) / Fold change /veh PRF1 (11729649_at) / RFU, ZNF638 /// ZNF638-IT1 / Fold change vs veh, ZNF638 /// ZNF638-IT1 / RFU, PANK3 / Fold change vs veh, PANK3 / RFU, SH3YL1 / Fold change vs veh, SH3YL1 / RFU, ZEB2 / Fold change vs veh, ZEB2 / RFU, NRIP1 / Fold change vs veh, NRIP1 / RFU, PTTG1IP / Fold change vs veh, PTTG1IP / RFU, CAPN2 / Fold change vs veh, CAPN2 / RFU, MED14 / Fold change vs veh, MED14 / RFU, SNORA58 / Fold change vs veh, SNORA58 / RFU, C1orf63 / Fold change vs veh, C1orf63 / RFU, LRRFIP1 / Fold change vs veh, LRRFIP1 / RFU, NDUFAF7 / Fold change vs veh, NDUFAF7 / RFU, SLC12A2 / Fold change vs veh, SLC12A2 / RFU, IBTK / Fold change vs veh, IBTK / RFU, ESF1 / Fold change vs veh, ESF1 / Fold change vs veh, TMEM50B / RFU, TAOK1 / Fold change vs veh, TAOK1 / RFU, ACBD3 / Fold change vs veh, ACBD3 / RFU, TMA16 / Fold change vs veh, TMA16 / RFU, RWDD3 / Fold change vs veh, RWDD3 / RFU, BCAT1 / Fold change vs veh, BCAT1 / RFU, EDEM3 / Fold change vs veh, EDEM3 / RFU, TMEM33 / Fold change vs veh, TMEM33 / RFU, WDR75 / Fold change vs veh, WDR75 / RFU, AHCTF1 / Fold change vs veh, AHCTF1 / RFU, TFRC / Fold change vs veh, TFRC / RFU, ZDHHC17 / Fold change vs veh, ZDHHC17 / RFU, NOM1 / Fold change vs veh, NOM1 / RFU, ARL8B / Fold change vs veh, ARL8B / RFU, ZBTB11 / Fold change vs veh, ZBTB11 / RFU, TAMM41 / Fold change vs veh, TAMM41 / RFU, KIAA1704 /// LOC100996395 / Fold change vs veh, KIAA1704 /// LOC100996395 / RFU, ING1 / Fold change vs veh, ING1 / RFU, TRMT61B / Fold change vs veh, TRMT61B / RFU, FUBP3 / Fold change vs veh, FUBP3 / RFU, TP53 / Fold change vs veh, TP53 / RFU, TNKS2 / Fold change vs veh, TNKS2 / RFU, ZFP14 / Fold change vs veh, ZFP14 / RFU, ACTR2 / Fold change vs veh, ACTR2 / RFU, PPP3R1 / Fold change vs veh, PPP3R1 / RFU, PIK3R1 / Fold change vs veh, PIK3R1 / RFU, HNRNPA1 / Fold change vs veh, HNRNPA1 / RFU, RNF170 / Fold change vs veh, RNF170 / RFU, ZNF28 / Fold change vs veh, ZNF28 / RFU, RNGTT / Fold change vs veh, RNGTT / RFU, OGT / Fold change vs veh, OGT / RFU, BRD1 / Fold change vs veh, BRD1 / RFU, MARS / Fold change vs veh, MARS / RFU, ZNF655 / Fold change vs veh, ZNF655 / RFU, FAHD1 / Fold change vs veh, FAHD1 / RFU, BDP1 / Fold change vs veh, BDP1 / RFU, LRRCC1 / Fold change vs veh, LRRCC1 / RFU, ARID1A / Fold change vs veh, ARID1A / RFU, ZNF146 / Fold change vs veh, ZNF146 / RFU, ZNF330 / Fold change vs veh, ZNF330 / RFU, GPN3 / Fold change vs veh, GPN3 / RFU, C9orf123 / Fold change vs veh, C9orf123 / RFU, N4BP2L2 / Fold change vs veh, N4BP2L2 / RFU, ARFIP1 / Fold change vs veh, ARFIP1 / RFU, FAM179B / Fold change vs veh, FAM179B / RFU, BCL10 / Fold change vs veh, BCL10 / RFU, UHRF1BP1L / Fold change vs veh, UHRF1BP1L / RFU, BET1 / Fold change vs veh, BET1 / RFU, CNOT2 / Fold change vs veh, CNOT2 / RFU, ZNF268 / Fold change vs veh, ZNF268 / Fold change vs veh, ZNF507 / RFU, DGCR2 / Fold change vs veh, DGCR2 / RFU, WDSUB1 / Fold change vs veh, WDSUB1 / Fold change vs veh, HSP90B1 /// MIR3652 / RFU, ADSS / Fold change vs veh, ADSS / RFU, GK / Fold change vs veh, GK / RFU, ZNF148 / Fold change vs veh, ZNF148 / RFU, TAF9 / Fold change vs veh, TAF9 / RFU, SLC1A5 / Fold change vs veh, SLC1A5 / RFU, SLMO2 / Fold change vs veh, SLMO2 / RFU, ABCC4 / Fold change vs veh, ABCC4 / RFU, LOC101060439 /// RAP1B / Fold change vs veh, LOC101060439 /// RAP1B / RFU, RFX7 / Fold change vs veh, RFX7 / RFU, GTPBP10 / Fold change vs veh, GTPBP10 / RFU, CNEP1R1 / Fold change vs veh, CNEP1R1 / RFU, BIVM-ERCC5 /// ERCC5 / Fold change vs veh, BIVM-ERCC5 /// ERCC5 / RFU, ILF3 / Fold change vs veh, ILF3 / RFU 11762660_at / Fold change /veh 11762660_at / RFU VCAN (11757783_s_at) / Fold change /veh VCAN (11757783_s_at) / RFU DDX43 (11728927_at) / Fold change /veh DDX43 (11728927_at) / RFU KRT8 (11758188_x_at) / Fold change /veh KRT8 (11758188_x_at) / RFU NKD1 (11759106_at) / Fold change /veh NKD1 (11759106_at) / RFU SRD5A1 (11742802_a_at) / Fold change /veh SRD5A1 (11742802_a_at) / RFU TPSAB1 /// TPSB2 (11721975_s_at) / Fold change /veh TPSAB1 /// TPSB2 (11721975_s_at) / RFU GSTM3 (11746129_a_at) / Fold change /veh GSTM3 (11746129_a_at) / RFU IL23R (11737362_x_at) / Fold change /veh IL23R (11737362_x_at) / RFU TMEM51 (11727254_a_at) / Fold change /veh TMEM51 (11727254_a_at) / RFU PIWIL2 (11732686_x_at) / Fold change /veh PIWIL2 (11732686_x_at) / RFU ORM1 (11744905_x_at) / Fold change /veh ORM1 (11744905_x_at) / RFU CCDC152 (11743942_at) / Fold change /veh CCDC152 (11743942_at) / RFU ECM1 (11717891_a_at) / Fold change /veh ECM1 (11717891_a_at) / RFU IL23R (11748794_a_at) / Fold change /veh IL23R (11748794_a_at) / RFU TNFAIP8L3 (11732012_x_at) / Fold change /veh TNFAIP8L3 (11732012_x_at) / RFU MBOAT4 (11741988_at) / Fold change /veh MBOAT4 (11741988_at) / RFU 11764193_at / Fold change /veh 11764193_at / RFU TMEM53 (11763286_at) / Fold change /veh TMEM53 (11763286_at) / RFU MAGEB2 (11727129_at) / Fold change /veh MAGEB2 (11727129_at) / RFU TMEM200A (11744735_a_at) / Fold change /veh TMEM200A (11744735_a_at) / RFU CCDC152 (11751479_a_at) / Fold change /veh CCDC152 (11751479_a_at) / RFU FAM211A (11726209_a_at) / Fold change /veh FAM211A (11726209_a_at) / RFU RGS16 (11746705_a_at) / Fold change /veh RGS16 (11746705_a_at) / RFU VCAN (11755009_s_at) / Fold change /veh VCAN (11755009_s_at) / RFU RHOB (11743442_s_at) / Fold change /veh RHOB (11743442_s_at) / RFU RGS16 (11720943_a_at) / Fold change /veh RGS16 (11720943_a_at) / RFU RGS16 (11720944_at) / Fold change /veh RGS16 (11720944_at) / RFU, VPS4B / Fold change vs veh, VPS4B / RFU, CREB1 / Fold change vs veh, CREB1 / RFU, DNAJC13 / Fold change vs veh, DNAJC13 / RFU, GNAQ / Fold change vs veh, GNAQ / RFU, CDK5R1 / Fold change vs veh, CDK5R1 / RFU, ZRANB3 / Fold change vs veh, ZRANB3 / RFU, CUL4A / Fold change vs veh, CUL4A / RFU, CCNY / Fold change vs veh, CCNY / RFU, UFL1 / Fold change vs veh, UFL1 / RFU, COG3 / Fold change vs veh, COG3 / RFU, DIAPH2 / Fold change vs veh, DIAPH2 / RFU, SKA2 / Fold change vs veh, SKA2 / RFU, AFF3 / Fold change vs veh, AFF3 / RFU, LMF1 / Fold change vs veh, LMF1 / RFU, IPO11 / Fold change vs veh, IPO11 / RFU, DFFB / Fold change vs veh, DFFB / RFU, FOXP1 / Fold change vs veh, FOXP1 / RFU, CARD8 / Fold change vs veh, CARD8 / RFU, STRN3 / Fold change vs veh, STRN3 / RFU, ADK / Fold change vs veh, ADK / RFU, RASSF2 / Fold change vs veh, RASSF2 / RFU, WIPF1 / Fold change vs veh, WIPF1 / RFU, LARP1B / Fold change vs veh, LARP1B / RFU, RASA1 / Fold change vs veh, RASA1 / RFU, RB1 / Fold change vs veh, RB1 / RFU, PPFIA1 / Fold change vs veh, PPFIA1 / RFU, MAT2A / Fold change vs veh, MAT2A / RFU, CCT5 / Fold change vs veh, CCT5 / RFU, WDR92 / Fold change vs veh, WDR92 / RFU, CUX1 / Fold change vs veh, CUX1 / RFU, TTC7A / Fold change vs veh, TTC7A / RFU, TMEM135 / Fold change vs veh, TMEM135 / RFU, DEPTOR / Fold change vs veh, DEPTOR / RFU, CPM / Fold change vs veh, CPM / RFU, DNAJB6 / Fold change vs veh, DNAJB6 / RFU, CACNA2D3 / Fold change vs veh, CACNA2D3 / RFU, DTX4 / Fold change vs veh, DTX4 / RFU, TFCP2 / Fold change vs veh, TFCP2 / RFU, GMCL1 /// GMCL1P1 / Fold change vs veh, GMCL1 /// GMCL1P1 / RFU, AEBP2 / Fold change vs veh, AEBP2 / RFU, SNHG1 /// SNORD22 /// SNORD25 /// SNORD26 /// SNORD27 /// SNORD28 /// SNORD29 /// SNORD31 / Fold change vs veh, SNHG1 /// SNORD22 /// SNORD25 /// SNORD26 /// SNORD27 /// SNORD28 /// SNORD29 /// SNORD31 / Fold change (Aza/veh), C12orf56 (ProbeSet 11735607_a_at) / Fold change (ACY-1035/veh), C12orf56 (ProbeSet 11735607_a_at) / Fold change (Aza/veh), FGFR1OP (ProbeSet 11751329_s_at) / Fold change (ACY-1035/veh), FGFR1OP (ProbeSet 11751329_s_at) / Fold change (Aza/veh), VPS36 (ProbeSet 11739960_a_at) / Fold change (ACY-1035/veh), VPS36 (ProbeSet 11739960_a_at) / RFU SYPL1 (11715823_x_at) / Fold change /veh SYPL1 (11715823_x_at) / RFU IGFBP7 (11715501_s_at) / Fold change /veh IGFBP7 (11715501_s_at) / RFU REEP3 (11722064_at) / Fold change /veh REEP3 (11722064_at) / RFU IGLL1 (11728026_x_at) / Fold change /veh IGLL1 (11728026_x_at): dose or concentration left out as unconfirmed
Conditions: ProbeSet 11764057_s_at; LIST B

In the case of `Nc1ccc(-c2cccs2)cc1NC(=O)c1ccc2c(c1)cc(C1CC1)n2CCN1CCOCC1` [ACY-1035], the “RFU, C1orf63” value is reported as 108.16 RFU.
